Experimental findings from patent US20220340633A1 (Adepthera LLC, priority 2016, published 2022) are described below.

“Also recorded” adds a separate entry of the source.

In experiment [1] the test system is primary human lymphatic endothelia cells (HLEC). Put plainly: HLEC survival in medium with 0.1% FBS, MTS assay. The conditions noted are these: 30, 100, and 300 nM, 72 hrs. On the technique in general: Tetrazolium dyes change colour on reduction, which living cells bring about.
Description: (§1) The cells were cultured for 72 hrs, and cell viability was assayed with the MTS assay (Promega).
The target in experiment [2] is T1, CLR/RAMP3 receptor (Homo sapiens, UniProt O60896+Q16602). Put plainly: CLR/RAMP3 cAMP receptor activation assay (agonist). It counts as cell-based. Also on record: host or cells: CHO-K1 cells. To be noted: CHO-K1, read-out: CLR/RAMP 3 Max Activity % of positive control.
T1 sequence (Q16602 23-461): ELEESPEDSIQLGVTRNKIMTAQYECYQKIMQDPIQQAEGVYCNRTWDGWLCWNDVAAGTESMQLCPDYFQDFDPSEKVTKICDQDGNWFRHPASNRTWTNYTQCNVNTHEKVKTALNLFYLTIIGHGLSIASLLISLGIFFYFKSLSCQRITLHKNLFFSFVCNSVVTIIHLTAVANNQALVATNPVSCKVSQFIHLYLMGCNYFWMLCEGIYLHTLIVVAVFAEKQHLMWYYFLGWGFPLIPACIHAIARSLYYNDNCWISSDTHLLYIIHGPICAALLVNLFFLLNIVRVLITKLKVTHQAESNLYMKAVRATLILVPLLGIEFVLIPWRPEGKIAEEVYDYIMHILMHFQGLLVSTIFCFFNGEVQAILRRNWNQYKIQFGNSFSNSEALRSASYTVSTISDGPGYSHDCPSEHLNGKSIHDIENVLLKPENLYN
T1 sequence (O60896 24-148): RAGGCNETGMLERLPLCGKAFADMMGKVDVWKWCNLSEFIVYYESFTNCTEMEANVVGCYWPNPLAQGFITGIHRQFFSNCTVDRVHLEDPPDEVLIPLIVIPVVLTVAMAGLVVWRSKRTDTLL
Description: (§2) Using a receptor activation assay, the dose-dependent stimulatory response of peptide agonists of the present invention on a CLR/RAMP1 receptor, a CLR/RAMP2, or a CLR/RAMP3 receptor complex was determined. A cell line carrying the recombinant CLR/RAMP1, CLR/RAMP2, or a CLR/RAMP3 receptor was employed in the assay. Peptide agonist activities were tested, in duplicate, at 10 different concentrations, starting with 1.0 μM and serially diluted 3-fold, in DMSO. […] The CLR/RAMP1 cAMP, CLR/RAMP2 arrestin assays, and CLR/RAMP3 cAMP (DiscoveRx, Fremont, Calif.) were used.
For a further experiment, the target named is T2, CLR/RAMP2 receptor (Homo sapiens, UniProt O60895+Q16602).
T2 construct: host or cells: CHO-K1 cells
T2 sequence (Q16602 23-461): as the sequence (Q16602 23-461) above
T2 sequence (O60895 43-175): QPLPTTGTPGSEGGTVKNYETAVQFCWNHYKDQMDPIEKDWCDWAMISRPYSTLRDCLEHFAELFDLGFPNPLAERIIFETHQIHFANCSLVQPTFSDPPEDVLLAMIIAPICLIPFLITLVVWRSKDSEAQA
Description: CLR/RAMP2 arrestin receptor activation assay (agonist). The experiment is classed as cell-based. The conditions noted are these: CHO-K1, read-out: CLR/RAMP 2 Max Activity % of positive control, CHO-K1 cells; % of positive control (ADM).

In another experiment the target is CLR/RAMP1 receptor (Homo sapiens, UniProt O60894+Q16602). Description: CLR/RAMP1 cAMP receptor activation assay (agonist). It counts as cell-based. Also on record: host or cells: 1321N1 cells. To be noted: 1321-N1, read-out: CLR/RAMP 1 Max Activity % of positive control, 1321N1 cells; % of positive control (β-CGRP).
CLR/RAMP1 receptor, sequence (Q16602 23-461): as the sequence (Q16602 23-461) above
CLR/RAMP1 receptor, sequence (O60894 27-148): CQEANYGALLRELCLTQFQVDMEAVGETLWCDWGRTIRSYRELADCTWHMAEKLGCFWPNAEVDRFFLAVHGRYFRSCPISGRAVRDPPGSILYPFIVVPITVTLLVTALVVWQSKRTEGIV
Experiment [3] concerns primary human lymphatic endothelia cells (HLEC). Put plainly: HLEC proliferation in medium with 2% FBS, MTS assay. The conditions noted are these: 30, 100, and 300 nM, 72 hrs.
Description: as §1
In experiment [4] the target is T1, CLR/RAMP3 receptor. The conditions noted are these: antagonist mode.
Description: as §2
For the analysis of antagonistic activity, the synthetic analogs were pre-incubated with the cells before adding the reference ligand at its EC80.

Description for CLR/RAMP1 receptor: as §2
Description for CLR/RAMP2 receptor: as §2

With `CCCCCCCCCCCCCCCC(=O)NCCCC[C@H](NC(=O)COCCOCCN)C(=O)NCC(=O)N[C@H]1CSSC[C@@H](C(=O)N[C@H](C(=O)N[C@H](C(=O)N[C@@H](CCC(N)=O)C(=O)N[C@@H](CCCCN)C(=O)N[C@@H](CC(C)C)C(=O)N[C@@H](C)C(=O)N[C@@H](Cc2c[nH]cn2)C(=O)N[C@@H](CCC(N)=O)C(=O)N[C@H](C(=O)N[C@@H](Cc2ccc(O)cc2)C(=O)N[C@@H](CCC(N)=O)C(=O)N[C@@H](Cc2ccccc2)C(=O)N[C@H](C(=O)N[C@@H](CC(=O)O)C(=O)N[C@@H](CCCCN)C(=O)N[C@@H](CC(=O)O)C(=O)N[C@@H](CCCCN)C(=O)N[C@@H](CC(=O)O)C(=O)N[C@@H](CC(N)=O)C(=O)N[C@H](C(=O)N[C@@H](C)C(=O)N2CCC[C@H]2C(=O)N[C@@H](CCCNC(=N)N)C(=O)N[C@@H](CO)C(=O)N[C@@H](CCCCN)C(=O)N[C@H](C(=O)N[C@@H](CO)C(=O)N2CCC[C@H]2C(=O)N[C@@H](CCC(N)=O)C(=O)NCC(=O)N[C@@H](Cc2ccc(O)cc2)C(N)=O)[C@@H](C)CC)C(C)C)[C@@H](C)O)[C@@H](C)CC)C(C)C)[C@@H](C)O)NC(=O)[C@H]([C@@H](C)O)NC(=O)CNC(=O)[C@H](Cc2ccccc2)NC(=O)[C@H](CCCNC(=N)N)NC1=O` [SEQ ID NO: 69], in experiment [1], the “HLEC survival (in words)” value is recorded as “dose-dependently stimulated; also recorded: significantly promote”. Moreover, the figures for the Emax at CLR/RAMP3 receptor [2], on CLR/RAMP2 receptor and at CLR/RAMP1 receptor were 127%, 147% and 70%, respectively. Further, the “HLEC proliferation (in words)” value in experiment [3] is “dose-dependently stimulated; also recorded: significantly promote”.

As for `CCCCCCCCCCCCCCCC(=O)N[C@@H](CCCCN)C(=O)N[C@H](C(=O)N[C@@H](CCC(N)=O)C(=O)N[C@@H](CCCCN)C(=O)N[C@@H](CC(C)C)C(=O)N[C@@H](C)C(=O)N[C@@H](Cc1c[nH]cn1)C(=O)N[C@@H](CCC(N)=O)C(=O)N[C@@H](CO)C(=O)N[C@@H](C)C(=O)N1CCC[C@H]1C(=O)N[C@H](C(=O)N[C@@H](CC(=O)O)C(=O)N1CCC[C@H]1C(=O)N[C@@H](CO)C(=O)N[C@@H](CO)C(=O)N1CCC[C@H]1C(=O)N[C@@H](Cc1c[nH]cn1)C(=O)N[C@@H](CO)C(=O)N[C@@H](Cc1ccc(O)cc1)C(N)=O)C(C)C)C(C)C` [SEQ ID NO: 124], the “CLR/RAMP3 Max Activity % of positive control” value on CLR/RAMP3 receptor [4] was found to be 102%.
